Reference: US10213413B2 (priority 2014, dated 2019)
Like-named read-outs stand apart in the source and are kept apart here.

What was measured:
[1] = target: T1, P-CTD/N-NTD interaction (Human respiratory syncytial virus A, UniProt P03418); test: Surface plasmon resonance competition assay (N-NTD binding to captured GST-P-CTD); design: species or system respiratory syncytial virus (RSV); settings: 25° C., 20 mM TrisHCl pH 8, 150 mM NaCl, N-NTD 20 μM; read-out: Ki (inhibition of P-CTD/N-NTD interaction, SPR)
T1 construct: N N-terminal region (N-NTD, residues 31 to 252); made in house; host or cells: E. coli BL21(DE3)
Protocol: The assays were carried out at 25° C. in a buffer 20 mM TrisHCl, pH 8, 150 mM NaCl.
A goat anti-GST antibody (Biacore GST Capture Kit) was covalently coupled to a CMS sensorchip, using a Biacore 2000 instrument and the Amine Coupling Kit (GE Healthcare), reaching an immobilization density of around 10000 resonance units (RU; 1RU≈1 pg.mm-2). This surface was used to capture tightly GST-fused P-CTD to a density of 1200-1300 RU, or GST (800 RU) as a control. N-NTD (20 μM), alone or mixed and equilibrated for over 2 hours with the different inhibitor candidates (concentration range: 5-750 μM), was then injected over the GST-P-CTD and GST surfaces for one minute at a flow rate of […]. After each injection, the interaction buffer was flowed on the surface until all the N-NTD molecules dissociated (taking advantage of the transient nature of the N-NTD/P-CTD interaction). At the end of the series, the surfaces were regenerated with a 2-min 10 mM glycine-HCl (pH 1.5) wash and two 1-min washes with 0.05% SDS and 20 mM NaOH. The real-time interaction profiles were double referenced using the Scrubber 2.0 software (BioLogic Software), that is both the signals from the reference surface (with GST captured on the anti-GST antibody) and from blank experiments using the compounds alone were subtracted. The steady-state SPR responses (Req) were plotted against the compound concentration C and fitted using the BIAevaluation 4.1 software (GE Healthcare), according to the following equation:
[formula] where is the concentration of N-NTD (20 μM) and R0 the steady-state SPR response for N-NTD alone, allowing to determine the inhibition constants Ki for each compound. Isothermal Titration Calorimetry
SPR signals are proportional to the molecular weight of the analytes and therefore, given the small molecular weight of selected compounds, direct binding between N-NTD and BPdC would have too small signals on the used instrument. Instead, the inventors resorted to indirect competition assays to assess the effect of BPdC on the interaction between surface-bound P-CTD and N-NTD. The inventors first characterized by SPR the specific interactions between P-CTD in fusion with GST (GST-P-CTD) and N-NTD. GST-P-CTD was immobilized on an anti-GST antibody surface and serial dilutions of N-NTD were injected. The interaction between the two domains was transient, with a very fast dissociation rate (koff>1 s^−1) and a Kd of 30 μM. Competition experiments were then performed with the BPdC compounds. […] Both compounds carried a specific Cl substituent in ortho on the benzyl ring, but addition of another Cl atom in para position, on M76, somewhat enhanced inhibition. […] The inhibitory properties of the compounds were directly related to their affinities for N-NTD with M72<M61<M68<M81<M76.

[2] = tested on: rHRSV-mCherry; assay type: cell-based, recombinant human RSV; settings: 48 h, HEp-2 cells
Protocol: (§1) DMSO dilutions in the same range were also used as controls. HEp-2 cells (ATCC number CCL-23) were seeded at 5×10^4 cells per well in 96-well plates the day before. Infection was carried out with 500 pfu of rHRSV-mCherry in MEM without phenol red. 2 h after infection, the medium was changed to MEM with 2% fetal calf serum and without phenol red. Compound dilutions were pre-incubated with viral suspensions for 5 min at 37° C. before addition on cell monolayers in the 96-well plates.
Fluorescence, expressed in relative fluorescence units, was measured using a spectrofluorimeter (Tecan infinite M200PRO) with excitation and emission wavelengths of 580 and 620 nm, respectively. Non-infected HEp-2 cells were used a standard for fluorescence background level.

[3] = tested on: HEp-2 cells; test: CellTiter-Glo Luminescent cell viability assay (cytotoxicity); assay type: cell-based; settings: 48 h
Protocol: as §1, with “Compound M76b was solubilized at 10 mM in 100% v/v DMSO and further diluted in water to 1 mM, then serially diluted threefold in minimum essential medium (MEM) without phenol red (Gibco) to a final concentration of 5 nM. DMSO” for “DMSO”, “plates. After treatment with compound M76b in DMSO or with DMSO alone, plates were incubated at 37° C. and 5% CO2 for 48 h.” for “plates.”
Cytotoxicity was assayed with the CellTiter-Glo Luminescent cell viability assay (Promega) after 48 h of incubation with DMSO alone or threefold dilutions of compound M76 in DMSO from 1 mM to 12 μM.

[4] = target: T2, N-NTD (N N-terminal region, residues 31 to 252) (Human respiratory syncytial virus A, UniProt P03418); test: NMR chemical shift perturbation titration (1H,15N-HSQC), dissociation constants; assay type: binding, respiratory syncytial virus (RSV); settings: 50 μM 15N-labeled N-NTD, two-site fast exchange model, 1:1 stoichiometry
T2 construct: N N-terminal region (N-NTD, residues 31 to 252); made in house; host or cells: E. coli BL21(DE3)
Protocol: N-NTD samples uniformly labeled with stable isotopes for NMR measurements were produced in minimal M9 medium supplemented with 1 g/L ^15NH4Cl and 3 g/L unlabeled or ^13C-glucose. The protocols were adapted from rich medium: an initial preculture of 15 mL in LB medium was used to inoculate a 500 mL M9 culture grown to saturation, and 500 mL of fresh M9 medium were added before induction. Purification was carried out as described above and followed by a final dialysis step to exchange the sample into NMR buffer (20 mM MES pH 6.5, 250 mM NaCl, 1.5 mM TCEP). A U-^13C, ^15N, 70%-^2H labeled N-NTD sample was prepared by starting from a 100 mL preculture in LB medium, used to inoculate 1 L of unlabeled M9. […]
Chemical shift perturbation (CSP) experiments were carried out with 50 μM U-^15N labeled N-NTD on a 700 MHz Bruker Avance III spectrometer equipped with a TXI probe by adding increasing amounts of M61, M68, M72, M76 and M81 from concentrated stock solutions (25, 10 or 5 mM) in ethanol. […] Dissociation constants were determined for a given residue, assuming a two-site fast exchange model with a 1:1 stoichiometry, by fitting the chemical shift difference (δ−δfree) as a function of molar ratios in Origin 7 software (OriginLab).
Combined ^1H and ^15N CSPs were calculated from: Δδ^1H^15N=√{square root over ((δ1H−δ1H^free)^2+(δ15N−δ15N^free)^2/100)}. […]

[5] = target: T3, N-NTD (Human respiratory syncytial virus A, UniProt P03418); test: Isothermal titration calorimetry; assay type: binding, respiratory syncytial virus (RSV); settings: 18° C.; for Kd: 20 mM Tris-HCl pH 8, 150 mM NaCl, 5% Ethanol, 30 μM N-NTD, read-out: Kd (ITC); for ΔH (binding enthalpy, ITC) / −TΔS (entropic contribution, ITC): 1:1 interaction model
T3 construct: N N-terminal region (N-NTD, residues 31 to 252); made in house; host or cells: E. coli BL21(DE3)
Protocol: ITC experiments were performed using the high precision VP-ITC system (MicroCal, GE Healthcare) and quantified with the Origin7 software provided by the manufacturer. All molecules were dissolved in 20 mM Tris-HCl, pH 8, 150 mM NaCl, 5% Ethanol and the binding enthalpies were measured by injecting the M76 or M61 solutions at 1.5 mM into calorimetric cell containing 30 μM N-NTD solution. Titrations were performed at 18° C. with 7 μl injections of M76 or M61 ligands every 350s. Heat signals were corrected for the heats of dilution and normalized to the amount of compound injected. Binding stoichiometries, enthalpy values and equilibrium dissociation constants were determined by fitting the corrected data to a 1:1 interaction model using the Origin7 software (OriginLab).
In parallel, the inventors investigated the properties of binding abilities of the di-substituted M76- and unsubstituted M61 to N-NTD by ITC. The purified N-NTD domain was loaded into the calorimeter cell and titrated with the compounds.

T1 sequence (P03418 31-252): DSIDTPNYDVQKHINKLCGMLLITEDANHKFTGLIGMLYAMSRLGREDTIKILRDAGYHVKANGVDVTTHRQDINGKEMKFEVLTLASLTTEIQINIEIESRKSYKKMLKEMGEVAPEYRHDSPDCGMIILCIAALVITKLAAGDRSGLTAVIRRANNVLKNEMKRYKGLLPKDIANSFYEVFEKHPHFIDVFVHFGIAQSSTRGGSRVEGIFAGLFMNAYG
T3 sequence (P03418 31-252): as above
T2 sequence (P03418 31-252): as above

Compound: O=C(O)c1cc(C(=O)O)n(Cc2ccc(Br)cc2)n1 [M68, 1-(4-bromoBenzyl)-pyrazole-3,5-dicarboxylate]
- Ki [1]: 610 ± 82 µM

Compound: O=C(O)c1cc(C(=O)O)n(Cc2ccccc2Cl)n1 [M81, 1-(2-chloroBenzyl)-pyrazole-3,5-dicarboxylate]
- Ki [1]: 247 ± 39 µM

Compound: CC(=O)OCOC(=O)c1cc(C(=O)OCOC(C)=O)n(Cc2ccc(Cl)cc2Cl)n1 [M76b]
- relative fluorescence ([2]; 111 μM, relative to control without M76b and DMSO): 40%
- relative fluorescence ([2]; 333 μM, relative to control without M76b and DMSO): less than 20%
- relative fluorescence ([2]; concentrations under 12 μM): above 80%
- cell survival ([3]; 111 μM): more than 95%
- cell survival ([3]; 333 μM): 25%

Compound: O=C(O)c1cc(C(=O)O)n(Cc2ccc(F)cc2)n1 [M72, 1-(4-fluoroBenzyl)-pyrazole-3,5-dicarboxylate]
- Kd [4]: 680 µM
- Ki [1]: 1660 ± 290 µM

Compound: O=C(O)c1cc(C(=O)O)n(Cc2ccccc2)n1 [M61, 1-(Benzyl)-pyrazole-3,5-dicarboxylate]
- Kd [5]: 510 ± 170 µM
- ΔH (binding enthalpy, ITC) [5]: -6.42 ± 2.42 kcal/mol
- −TΔS (entropic contribution, ITC) [5]: 2.2 ± 1.8 kcal/mol
- Ki [1]: 893 ± 86 µM

Compound: O=C(O)c1cc(C(=O)O)n(Cc2ccc(Cl)cc2Cl)n1 [M76, 1-(2,4-dichloroBenzyl)-pyrazole-3,5-dicarboxylate]
- Kd [5]: 48 ± 8 µM
- ΔH (binding enthalpy, ITC) [5]: -11.0 ± 3.6 kcal/mol
- −TΔS (entropic contribution, ITC) [5]: 5.4 ± 3.8 kcal/mol
- Kd [4]: 20 µM
- Ki [1]: 155 ± 25 µM
